Reference: patent US20260256794A1, “Oral Dynamine Formulations and Methods Therefor” (Ortho-Nutra, LLC, priority 2023, published 2026)

What was measured:
Format in all cases: in vivo, human
subjects [1] = test: VAS-Drive; design: VAS-Drive rating, Mean / VAS-Drive changes from baseline, Mean Difference ± SE: scale not given here; VAS-Drive area under the curve, Mean Difference ± SE / VAS-Drive area under the curve, Mean: unit not given here
Experimental: (§1) The inventors have discovered various compositions and methods of improving various indices of neurological and neuroenergetic functions by administering 100 mg (once daily) dosages of DYNAMINE™ (dosage between 1.0 and 1.4 mg/kg) as described in the following:
(§2) All neuroenergetic tests as listed below were performed and data were collected after 0 and 4 days of assigned supplements (with acute effects also measured at day 4 over 180 minutes):
(§3) All VAS Measurement (Energy, Sustained Energy, Mental Stamina, Ability to Focus, Ability to Concentrate, Motivation to Accomplish Difficult Tasks, Drive, Vigor, Level of Positive Outlook, Mood, Feelings of Well-Being, Tolerate Stress); Day 0: Two tests were completed. The average of both scores was computed and this value was used in all statistical analysis. Day 4 (0 minutes after ingesting dose #4): Two tests were completed. The average of both scores was computed and this value was used in all statistical analysis. Day 4 (60, 120, and 180 minutes after ingesting dose #4): One test was completed at each time point.
(§4) Neuroenergic parameters are inherently subjective, nevertheless significant in human behavior and well-being. To allow for a standardization among different subjects, the following experiments were performed using a visual analog scale using anchor statements (lowest possible/highest possible) in which subjects were asked to rate their subjective experience with respect to the specific neuroenergic parameters tested.
VAS-Drive: In this subjective test, subjects were asked to rate their personal level of energy on a VAS scale using the prompt of “My drive right now is . . . ” (with rating lowest possible to highest possible)”. Results were collected as noted above and Table 22 provides exemplary results for Day 0 versus Day 4 ratings, whereas Table 23 provides exemplary acute results measured at Day 4 over a duration of 180 minutes.

subjects [2] = test: Stroop-Total Score
Experimental: as §1, §2
Stroop Color Matching Test (Total Score, Accuracy %, Average Score): Day 0: Two blocks of three tests were completed. Each block of three tests was separated by 10 minutes. The median of each block was taken and then those two scores were averaged. This value was used in all statistical analysis. Day 4: Three tests were completed at four time points: after 0, 60, 120, and 180 minutes of taking dose #4. The median of the three tests at each time point was used in all statistical analysis.
The Stroop Color and Word Test (SCWT, or Stroop test) is a neuropsychological test extensively used to assess the ability to inhibit cognitive interference that occurs when the processing of a specific stimulus feature impedes the simultaneous processing of a second stimulus attribute, well-known as the Stroop effect (see e.g., Front Psychol. 2017; 8:557). Here, subjects were required to read three different tables as fast as possible. Two of them represent the “congruous condition” in which participants are required to read names of colors (‘color-words’) printed in black ink (W) and name different color patches (C). However, in the third table, the color-word (CW) condition, color-words are printed in an inconsistent color ink (e.g., the word “red” is printed in green ink). In this incongruent condition, participants are required to name the color of the ink instead of reading the word. In other words, the participants are required to perform a less automated task (i.e., naming ink color) while inhibiting the interference arising from a more automated task (i.e., reading the word). This difficulty in inhibiting the more automated process is called the Stroop effect. The Stroop test is predominantly used to measure the ability to inhibit cognitive interference. However, some sources also report its application to measure other cognitive functions such as attention, processing speed, cognitive flexibility, and working memory.
Stroop-Total Score: The results for this test were based on a total score comparing performance between Day 0 and Day 4, with Day 4 including tests over a duration of 180 minutes. Results were collected as noted above and Table 41 provides exemplary results for Day 0 versus Day 4 ratings, whereas Table 42 provides exemplary acute results measured at Day 4 over a duration of 180 minutes.

subjects [3] = test: VAS-Well-Being; design: VAS-Well-Being rating, Mean / VAS-Well-Being changes from baseline, Mean Difference ± SE / VAS-Well-Being area under the curve, Mean Difference ± SE / VAS-Well-Being area under the curve, Mean: scale not given here
Experimental: as §1, §2, §3, §4
VAS-Well-Being: In this subjective test, subjects were asked to rate their personal level of energy on a VAS scale using the prompt of “My feeling of well-being right now is . . . ” (with rating lowest possible to highest possible)”. Results were collected as noted above and Table 34 provides exemplary results for Day 0 versus Day 4 ratings, whereas Table 35 provides exemplary acute results measured at Day 4 over a duration of 180 minutes.

subjects [4] = test: VAS-Positivity; design: VAS-Positivity rating, Mean: scale not given here
Experimental: as §1, §2, §3, §4
VAS-Positivity: In this subjective test, subjects were asked to rate their personal level of energy on a VAS scale using the prompt of “My level of positive outlook right now is . . . ” (with rating lowest possible to highest possible)”. Results were collected as noted above and Table 28 provides exemplary results for Day 0 versus Day 4 ratings, whereas Table 29 provides exemplary acute results measured at Day 4 over a duration of 180 minutes.

[5] = 100 mg once daily, Day 4, 0-180 min
[6] = 100 mg once daily, Day 4, 0-180 min, vs Group A (placebo)
[7] = 100 mg once daily, Day 4, 0 min after dose #4
[8] = 100 mg once daily, Day 4, 60 min-0 min, vs Group A (placebo)
[9] = 100 mg once daily, Day 4, 60 min after dose #4
[10] = 100 mg once daily, Day 4, 120 min-0 min, vs Group A (placebo)
[11] = 100 mg once daily, Day 4, 120 min after dose #4
[12] = 100 mg once daily, Day 4, 180 min-0 min, vs Group A (placebo)
[13] = 100 mg once daily, Day 4, 180 min after dose #4

Question: COc1nc2c(c(=O)n1C)n(C)c(=O)n2C [methylliberine, 2-methoxy-1,7,9-trimethylpurine-6,8-dione] was tested. Which “VAS-Drive area under the curve, Mean” value (subjects [1]; [5]) did it give?
Answer: 1110

Question: What about the “VAS-Drive area under the curve, Mean Difference ± SE” value (subjects [1]; [6]) of the same compound?
Answer: 20.4 ± 37.8

Question: And the “VAS-Drive area under the curve, effect size d” value (subjects [1]; [6])?
Answer: 0.06

Question: And the “VAS-Drive rating, Mean” value (subjects [1]; [7])?
Answer: 5.9

Question: What about the “VAS-Drive changes from baseline, Mean Difference ± SE” value (subjects [1]; [8]) of the same compound?
Answer: −0.06 ± 0.27

Question: And the “VAS-Drive changes from baseline, effect size d” value (subjects [1]; [8])?
Answer: −0.07

Question: What about the “VAS-Drive rating, Mean” value (subjects [1]; [9]) of the same compound?
Answer: 6.1

Question: And the “VAS-Drive changes from baseline, Mean Difference ± SE” value (subjects [1]; [10])?
Answer: −0.16 ± 0.28

Question: And the “VAS-Drive changes from baseline, effect size d” value (subjects [1]; [10])?
Answer: −0.15

Question: What about the “VAS-Drive rating, Mean” value (subjects [1]; [11]) of the same compound?
Answer: 6.2

Question: And the “VAS-Drive changes from baseline, Mean Difference ± SE” value (subjects [1]; [12])?
Answer: 0.33 ± 0.35

Question: And the “VAS-Drive changes from baseline, effect size d” value (subjects [1]; [12])?
Answer: 0.26

Question: What about the “VAS-Drive rating, Mean” value (subjects [1]; [13]) of the same compound?
Answer: 6.4

Question: And the “VAS-Drive rating, Mean” value (subjects [1]; Day 0 (before supplementation))?
Answer: 5.8

Question: What about the “Stroop total score, Mean” value (subjects [2]; [7]) of the same compound?
Answer: 127.4

Question: And the “Stroop total score, Mean” value (subjects [2]; [9])?
Answer: 131.5

Question: What about the “Stroop total score, Mean” value (subjects [2]; [11]) of the same compound?
Answer: 132.1

Question: What about the “Stroop total score, Mean” value (subjects [2]; [13]) of the same compound?
Answer: 134.8

Question: What about the “Stroop total score, Mean” value (subjects [2]; Day 0 (before supplementation)) of the same compound?
Answer: 125.0

Question: And the “VAS-Well-Being area under the curve, Mean” value (subjects [3]; [5])?
Answer: 1239

Question: What about the “VAS-Well-Being area under the curve, Mean Difference ± SE” value (subjects [3]; [6]) of the same compound?
Answer: 14.9 ± 43.0

Question: What about the “VAS-Well-Being area under the curve, effect size d” value (subjects [3]; [6]) of the same compound?
Answer: −0.05

Question: And the “VAS-Well-Being rating, Mean” value (subjects [3]; [7])?
Answer: 6.4

Question: And the “VAS-Well-Being changes from baseline, Mean Difference ± SE” value (subjects [3]; [8])?
Answer: 0.16 ± 0.16

Question: And the “VAS-Well-Being changes from baseline, effect size d” value (subjects [3]; [8])?
Answer: 0.22

Question: And the “VAS-Well-Being rating, Mean” value (subjects [3]; [9])?
Answer: 6.8

Question: And the “VAS-Well-Being changes from baseline, Mean Difference ± SE” value (subjects [3]; [10])?
Answer: 0.46 ± 0.29

Question: And the “VAS-Well-Being changes from baseline, effect size d” value (subjects [3]; [10])?
Answer: 0.45

Question: What about the “VAS-Well-Being rating, Mean” value (subjects [3]; [11]) of the same compound?
Answer: 7.3

Question: What about the “VAS-Well-Being changes from baseline, Mean Difference ± SE” value (subjects [3]; [12]) of the same compound?
Answer: 0.54 ± 1.34

Question: And the “VAS-Well-Being changes from baseline, effect size d” value (subjects [3]; [12])?
Answer: 0.52

Question: And the “VAS-Well-Being rating, Mean” value (subjects [3]; [13])?
Answer: 7.2

Question: And the “VAS-Well-Being rating, Mean” value (subjects [3]; Day 0 (before supplementation))?
Answer: 6.8

Question: What about the “VAS-Positivity area under the curve, Mean” value (subjects [4]; [5]) of the same compound?
Answer: 1235

Question: What about the “VAS-Positivity area under the curve, Mean Difference ± SE” value (subjects [4]; [6]) of the same compound?
Answer: 15.0 ± 43.0

Question: And the “VAS-Positivity area under the curve, effect size d” value (subjects [4]; [6])?
Answer: 0.05

Question: What about the “VAS-Positivity rating, Mean” value (subjects [4]; [7]) of the same compound?
Answer: 6.4

Question: What about the “VAS-Positivity changes from baseline, Mean Difference ± SE” value (subjects [4]; [8]) of the same compound?
Answer: 0.07 ± 0.19

Question: And the “VAS-Positivity changes from baseline, effect size d” value (subjects [4]; [8])?
Answer: 0.08

Question: What about the “VAS-Positivity rating, Mean” value (subjects [4]; [9]) of the same compound?
Answer: 6.8

Question: And the “VAS-Positivity changes from baseline, Mean Difference ± SE” value (subjects [4]; [10])?
Answer: −0.05 ± 0.25

Question: What about the “VAS-Positivity changes from baseline, effect size d” value (subjects [4]; [10]) of the same compound?
Answer: 0.05

Question: And the “VAS-Positivity rating, Mean” value (subjects [4]; [11])?
Answer: 7.0

Question: And the “VAS-Positivity changes from baseline, Mean Difference ± SE” value (subjects [4]; [12])?
Answer: 0.46 ± 0.27

Question: What about the “VAS-Positivity changes from baseline, effect size d” value (subjects [4]; [12]) of the same compound?
Answer: 0.43

Question: And the “VAS-Positivity rating, Mean” value (subjects [4]; [13])?
Answer: 7.0

Question: What about the “VAS-Positivity rating, Mean” value (subjects [4]; Day 0 (before supplementation)) of the same compound?
Answer: 6.6
